# Data taken from patent US9546152B2 (MERCK SHARP & DOHME CORP., priority 2012, dated 2017).
# pIC50, pKi: −log10 of the molar value.
# Key:
# rat orexin-1 receptor = rat orexin-1 receptor (Rattus norvegicus (Rat), UniProt P56718); test: FLIPR Ca2+ Flux Assay, orexin-1 receptor; type: cell-based; conditions: CHO cells expressing the rat orexin-1 receptor; agonist 70 pM Ala-6,12 human orexin-A; read-out: hOX1R FLIPR IC50
# How it was run: (§1)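 FLIPR Ca2+ flux, CHO cells, rat OX1R / human OX2R; 5 min cpd preinc, then 70 pM Ala-6,12 hOrexin-A final; buffer pH 7.4 w/ 2.5 mM probenecid; peak vs agonist-alone.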
# human orexin-2 receptor [1] = target: T1, human orexin-2 receptor (Homo sapiens (Human), UniProt O43614); test: radioligand binding assay, orexin-2 receptor; conditions: membranes prepared from CHO cells expressing the OX2 receptor; read-out: hOX2R BIND hKi
# T1 sequence (O43614 whole entry): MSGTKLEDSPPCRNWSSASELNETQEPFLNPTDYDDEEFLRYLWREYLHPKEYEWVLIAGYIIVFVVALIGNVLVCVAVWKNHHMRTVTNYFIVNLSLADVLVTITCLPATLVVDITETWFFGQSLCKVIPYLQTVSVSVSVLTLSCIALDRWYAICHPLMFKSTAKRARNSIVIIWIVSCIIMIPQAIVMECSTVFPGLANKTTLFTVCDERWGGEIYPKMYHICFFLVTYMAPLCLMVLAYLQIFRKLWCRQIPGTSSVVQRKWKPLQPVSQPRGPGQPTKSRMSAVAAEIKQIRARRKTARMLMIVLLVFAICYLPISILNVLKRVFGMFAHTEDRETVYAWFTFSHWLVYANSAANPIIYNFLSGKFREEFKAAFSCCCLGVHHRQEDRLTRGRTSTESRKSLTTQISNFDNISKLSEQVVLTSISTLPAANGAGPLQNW
# human orexin-2 receptor [2] = target: T1, human orexin-2 receptor; test: FLIPR Ca2+ Flux Assay, orexin-2 receptor; type: cell-based; conditions: CHO cells expressing the human orexin-2 receptor; agonist 70 pM Ala-6,12 human orexin-A; read-out: hOX2R FLIPR IC50
# How it was run: as §1
# Chain of rat orexin-1 receptor (P56718 whole entry): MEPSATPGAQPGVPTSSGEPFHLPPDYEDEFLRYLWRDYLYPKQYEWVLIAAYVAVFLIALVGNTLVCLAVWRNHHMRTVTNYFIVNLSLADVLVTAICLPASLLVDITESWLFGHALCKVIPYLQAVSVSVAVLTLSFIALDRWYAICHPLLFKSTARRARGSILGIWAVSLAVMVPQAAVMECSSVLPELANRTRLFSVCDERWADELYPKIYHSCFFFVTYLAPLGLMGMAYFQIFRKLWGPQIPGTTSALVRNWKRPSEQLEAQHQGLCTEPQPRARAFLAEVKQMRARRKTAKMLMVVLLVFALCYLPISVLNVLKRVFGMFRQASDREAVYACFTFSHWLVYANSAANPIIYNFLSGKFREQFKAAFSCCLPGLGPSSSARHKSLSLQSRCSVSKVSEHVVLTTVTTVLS
Structure (SMILES),pIC50 (rat orexin-1 receptor),pKi (human orexin-2 receptor [1]),pIC50 (human orexin-2 receptor [2])
"Cc1noc(-c2ccccc2C(=O)N2C[C@H](Oc3nccc(C#N)c3C)CC[C@H]2C)n1 [Example 58, 3-methyl-2-{[(3R,6R)-6-methyl-1-{[2-(3-methyl-1,2,4-oxadiazol-5-yl)phenyl]carbonyl}piperidin-3-yl]oxy}pyridine-4-carbonitrile]",6.13,9.30,7.92
"CCc1ccccc1C(=O)N1C[C@H](Oc2nccc(C#N)c2C)CC[C@H]1C [Example 59, 2-({(3R,6R)-1-[(2-ethylphenyl)carbonyl]-6-methylpiperidin-3-yl}oxy)-3-methylpyridine-4-carbonitrile]",< 5.00,8.43,7.51
"Cc1c(C#N)ccnc1O[C@@H]1CC[C@@H](C)N(C(=O)c2cccnc2-c2ccccc2)C1 [Example 60, 3-methyl-2-({(3R,6R)-6-methyl-1-[(2-phenylpyridin-3-yl)carbonyl]piperidin-3-yl}oxy)pyridine-4-carbonitrile]",5.33,8.59,7.59
"CSc1ccccc1C(=O)N1C[C@H](Oc2nccc(C#N)c2C)CC[C@H]1C [Example 61, 3-methyl-2-{[(3R,6R)-6-methyl-1-{[2-(methylsulfanyl)phenyl]carbonyl}piperidin-3-yl]oxy}pyridine-4-carbonitrile]",5.10,8.85,7.46
"Cc1c(C#N)ccnc1O[C@@H]1CC[C@@H](C)N(C(=O)c2ccc(OCF)cc2-n2nccn2)C1 [Example 64, 2-{[(3R,6R)-1-{[4-(fluoromethoxy)-2-(2H-1,2,3-triazol-2-yl)phenyl]carbonyl}-6-methylpiperidin-3-yl]oxy}-3-methylpyridine-4-carbonitrile]",5.35,8.48,7.46
"Cc1c(C#N)ccnc1O[C@@H]1CC[C@@H](C)N(C(=O)c2cnc(Cl)cc2-n2nccn2)C1 [Example 67, 2-{[(3R,6R)-1-{[6-chloro-4-(2H-1,2,3-triazol-2-yl)pyridin-3-yl]carbonyl}-6-methylpiperidin-3-yl]oxy}-3-methylpyridine-4-carbonitrile]",< 5.00,8.33,7.46
CCOc1ncccc1C(=O)N1C[C@H](Oc2nccc(C#N)c2C)CC[C@H]1C [Example 68],< 5.00,8.23,7.44
"Cc1c(C#N)ccnc1O[C@@H]1CC[C@@H](C)N(C(=O)c2ccccc2-n2ncnn2)C1 [Example 70, 3-methyl-2-{[(3R,6R)-6-methyl-1-{[2-(2H-tetrazol-2-yl)phenyl]carbonyl}piperidin-3-yl]oxy}pyridine-4-carbonitrile]",5.34,8.80,8.11
"Cc1c(C#N)ccnc1O[C@@H]1CC[C@@H](C)N(C(=O)c2cc(C#N)ccc2-n2nccn2)C1 [Example 71, 2-{[(3R,6R)-1-{[5-cyano-2-(2H-1,2,3-triazol-2-yl)phenyl]carbonyl}-6-methylpiperidin-3-yl]oxy}-3-methylpyridine-4-carbonitrile]",5.73,8.26,7.40
"Cc1c(C#N)ccnc1O[C@@H]1CC[C@@H](C)N(C(=O)c2ccc(Cl)nc2-n2nccn2)C1 [Example 72, 2-{[(3R,6R)-1-{[6-chloro-2-(2H-1,2,3-triazol-2-yl)pyridin-3-yl]carbonyl}-6-methylpiperidin-3-yl]oxy}-3-methylpyridine-4-carbonitrile]",< 5.00,8.46,7.12
"Cc1c(C#N)ccnc1O[C@@H]1CC[C@@H](C)N(C(=O)c2sccc2-c2ncccn2)C1 [Example 75, 3-methyl-2-({(3R,6R)-6-methyl-1-[(3-pyrimidin-2-ylthiophen-2-yl)carbonyl]piperidin-3-yl}oxy)pyridine-4-carbonitrile]",5.85,9.10,7.82
"Cc1ccc(C(=O)N2C[C@H](Oc3nccc(C#N)c3C)CC[C@H]2C)c(-c2ncccn2)c1 [Example 76, 3-methyl-2-({(3R,6R)-6-methyl-1-[(4-methyl-2-pyrimidin-2-ylphenyl)carbonyl]piperidin-3-yl}oxy)pyridine-4-carbonitrile]",5.90,8.68,7.43
"COc1ccc(C(=O)N2C[C@H](Oc3nccc(C#N)c3C)CC[C@H]2C)c(-c2ccccc2)n1 [Example 78, 2-({(3R,6R)-1-[(6-methoxy-2-phenylpyridin-3-yl)carbonyl]-6-methylpiperidin-3-yl}oxy)-3-methylpyridine-4-carbonitrile]",5.90,8.92,7.04
"COc1ccc(C(=O)N2C[C@H](Oc3nccc(C#N)c3C)CC[C@H]2C)c(-c2ccnn2C)n1 [Example 79, 2-{[(3R,6R)-1-{[6-methoxy-2-(1-methyl-1H-pyrazol-5-yl)pyridin-3-yl]carbonyl}-6-methylpiperidin-3-yl]oxy}-3-methylpyridine-4-carbonitrile]",5.00,8.00,7.07
"COc1ccc(C(=O)N2C[C@H](Oc3nccc(C#N)c3C)CC[C@H]2C)c(-c2ccn(C)n2)n1 [Example 81, 2-{[(3R,6R)-1-{[6-methoxy-2-(1-methyl-1H-pyrazol-3-yl)pyridin-3-yl]carbonyl}-6-methylpiperidin-3-yl]oxy}-3-methylpyridine-4-carbonitrile]",5.00,8.08,7.19
"COc1ccc(C(=O)N2C[C@H](Oc3nccc(C#N)c3C)CC[C@H]2C)c(-c2cccnc2)n1 [Example 82, 2-({(3R,6R)-1-[(6-methoxy-2,3′-bypyridin-3-yl)carbonyl]-6-methylpiperidin-3-yl}oxy)-3-methylpyridine-4-carbonitrile]",5.08,8.62,7.26
"COc1ccc(C(=O)N2C[C@H](Oc3nccc(C#N)c3C)CC[C@H]2C)c(-c2ccccn2)n1 [Example 83, 2-({(3R,6R)-1-[(6-methoxy-2,2′-bypyridin-3-yl)carbonyl]-6-methylpiperidin-3-yl}oxy)-3-methylpyridine-4-carbonitrile]",5.00,9.08,7.19
"COc1ccc(C(=O)N2C[C@H](Oc3nccc(C#N)c3C)CC[C@H]2C)c(SC)n1 [Example 84, 2-{[(3R,6R)-1-{[6-Methoxy-2-(methylsulfanyl)pyridin-3-yl]carbonyl}-6-methylpiperidin-3-yl]oxy}-3-methylpyridine-4-carbonitrile]",< 5.00,8.70,7.66
"COc1ccc(C(=O)N2C[C@H](Oc3nccc(C#N)c3C)CC[C@H]2C)c(N(C)C)n1 [Example 87, 2-{[(3R,6R)-1-{[2-(Dimethylamino)-6-methoxypyridin-3-yl]carbonyl}-6-methylpiperidin-3-yl]oxy}-3-methylpyridine-4-carbonitrile]",< 5.00,8.05,7.16
"Cc1c(C#N)ccnc1O[C@@H]1CC[C@@H](C)N(C(=O)c2ccc(OCF)nc2-n2nccn2)C1 [Example 88, 2-{[(3R,6R)-1-{[6-(Fluoromethoxy)-2-(2H-1,2,3-triazol-2-yl)pyridin-3-yl]carbonyl}-6-methylpiperidin-3-yl]oxy}-3-methylpyridine-4-carbonitrile]",< 5.00,8.04,7.24
"Cc1c(C#N)ccnc1O[C@@H]1CC[C@@H](C)N(C(=O)c2ccc(Br)nc2-n2nccn2)C1 [Example 89, 2-{[(3R,6R)-1-{[6-Bromo-2-(2H-1,2,3-triazol-2-yl)pyridin-3-yl]carbonyl}-6-methylpiperidin-3-yl]oxy}-3-methylpyridine-4-carbonitrile]",< 5.00,8.29,7.54
"C=Cc1ccc(C(=O)N2C[C@H](Oc3nccc(C#N)c3C)CC[C@H]2C)c(-n2nccn2)n1 [Example 90, 2-{[(3R,6R)-1-{[6-ethenyl-2-(2H-1,2,3-triazol-2-yl)pyridin-3-yl]carbonyl}-6-methylpiperidin-3-yl]oxy}-3-methylpyridine-4-carbonitrile]",< 5.00,7.89,7.06
"C[C@@H]1CC[C@@H](Oc2nccc(C#N)c2Cl)CN1C(=O)c1ccccc1-n1nccn1 [Example 91, 3-Chloro-2-{[(3R,6R)-6-methyl-1-{[2-(2H-1,2,3-triazol-2-yl)phenyl]carbonyl}piperidin-3-yl]oxy}pyridine-4-carbonitrile]",5.79,9.10,8.10
"C[C@@H]1CC[C@@H](Oc2nccc(C#N)c2C#N)CN1C(=O)c1ccccc1-n1nccn1 [Example 94, 2-{[(3R,6R)-6-methyl-1-{[2-(2H-1,2,3-triazol-2-yl)phenyl]carbonyl}piperidin-3-yl]oxy}pyridine-3,4-dicarbonitrile]",< 5.00,8.36,7.40
"CSc1c(C#N)ccnc1O[C@@H]1CC[C@@H](C)N(C(=O)c2ccccc2-n2nccn2)C1 [Example 95, 3-(Methylsulfanyl)-2-{[(3R,6R)-6-methyl-1-{[2-(2H-1,2,3-triazol-2-yl)phenyl]carbonyl}piperidin-3-yl]oxy}pyridine-4-carbonitrile]",6.51,10.00,8.22
"COc1c(C#N)ccnc1O[C@@H]1CC[C@@H](C)N(C(=O)c2ccccc2-n2nccn2)C1 [Example 96, 3-Methoxy-2-{[(3R,6R)-6-methyl-1-{[2-(2H-1,2,3-triazol-2-yl)phenyl]carbonyl}piperidin-3-yl]oxy}pyridine-4-carbonitrile]",5.90,9.52,8.05
